Reference: ChEMBL document CHEMBL1146155, “NC-100717: a versatile RGD peptide scaffold for angiogenesis imaging” (Bioorg Med Chem Lett, 2006)
pKi: −log10 of the molar value. *1 amine or outer side, *2 acyl side, *3 side chain or, on linkers, in order; H or OH if unused. Where a SMILES comes first, the peptide text is derived from it. Bridges are numbered along the chain shown (N, C = ends). Side-chain parts run from the residue outwards. [ ]: non-standard residue; d: D form. The star is where a group is joined. X1 = O=C(COCC(=O)*)NCCOCCOCCOCCOCCOCCNC(=O)CO/N=C/c1ccc(F)cc1; DOTA = O=C(O)CN1CCN(CC(=O)O)CCN(CC(=O)*)CCN(CC(=O)O)CC1; Gly(2R-SCH2CO) = O=C([C@H](N[*:1])SCC(=O)[*:3])[*:2]; X3 = C/C(=N\O)C(C)(C)NCCC(CCNC(C)(C)/C(C)=N/O)CCN*; Gly(αR-SH) = O=C([C@H](N[*:1])S[*:3])[*:2]; Glutaryl = O=C(CCCC(=O)[*:2])[*:1]; X2 = NC(=O)COCC(=O)NCCOCCOCCOCCN*

Test: Displacement of [125I]echistatin from AlphaVbeta3/AlphaVbeta5 integrin receptor in EAHy 926 cells
Format: cell-based, Homo sapiens

| Structure (SMILES) | pKi |
| --- | --- |
| CC[N+]1=C(/C=C/C=C/C=C2/N(CCCCCC(=O)NCCCC[C@@H]3NC(=O)CS[C@H](C(=O)NCCOCCOCCOCCNC(=O)COCC(N)=O)NC(=O)[C@H](Cc4ccccc4)NC(=O)[C@@H]4NC(=O)[C@H](CC(=O)O)NC(=O)CNC(=O)[C@H](CCCNC(=N)N)NC(=O)[C@H](NC3=O)SS4)c3ccc4c(S(=O)(=O)O)cc(S(=O)(=O)O)cc4c3C2(C)C)C(C)(C)c2c1ccc1c(S(=O)(=O)[O-])cc(S(=O)(=O)O)cc21 | 9.12 |
| N=C(N)NCCC[C@@H]1NC(=O)[C@@H]2NC(=O)[C@H](CCCCNC(=O)CN3CCN(CC(=O)O)CCN(CC(=O)O)CCN(CC(=O)O)CC3)NC(=O)CS[C@H](C(=O)NCCOCCOCCOCCNC(=O)COCC(N)=O)NC(=O)[C@H](Cc3ccccc3)NC(=O)[C@H](NC(=O)[C@H](CC(=O)O)NC(=O)CNC1=O)SS2 (K(DOTA)[Gly(αR-SH)]RGD[Gly(αR-SH)]F[Gly(2R-SCH2CO)]-X2; disulfide 2-6; lactam N-8) | 8.49 |
| N=C(N)NCCC[C@@H]1NC(=O)[C@@H]2NC(=O)[C@H](CCCCNC(=O)COCC(=O)NCCOCCOCCOCCOCCOCCNC(=O)CO/N=C/c3ccc(F)cc3)NC(=O)CS[C@H](C(=O)NCCOCCOCCOCCNC(=O)COCC(N)=O)NC(=O)[C@H](Cc3ccccc3)NC(=O)[C@H](NC(=O)[C@H](CC(=O)O)NC(=O)CNC1=O)SS2 (K(X1)[Gly(αR-SH)]RGD[Gly(αR-SH)]F[Gly(2R-SCH2CO)]-X2; disulfide 2-6; lactam N-8) | 8.09 |
| C/C(=N\O)C(C)(C)NCCC(CCNC(=O)CCCC(=O)NCCCC[C@@H]1NC(=O)CS[C@H](C(=O)NCCOCCOCCOCCNC(=O)COCC(N)=O)NC(=O)[C@H](Cc2ccccc2)NC(=O)[C@@H]2NC(=O)[C@H](CC(=O)O)NC(=O)CNC(=O)[C@H](CCCNC(=N)N)NC(=O)[C@H](NC1=O)SS2)CCNC(C)(C)/C(C)=N/O (K([Glutaryl-X3])[Gly(αR-SH)]RGD[Gly(αR-SH)]F[Gly(2R-SCH2CO)]-X2; disulfide 2-6; lactam N-8) | 8.51 |
| N=C(N)NCCC[C@@H]1NC(=O)[C@@H]2NC(=O)[C@H](CCCCN)NC(=O)CS[C@H](C(=O)NCCOCCOCCOCCNC(=O)COCC(N)=O)NC(=O)[C@H](Cc3ccccc3)NC(=O)[C@H](NC(=O)[C@H](CC(=O)O)NC(=O)CNC1=O)SS2 (K[Gly(αR-SH)]RGD[Gly(αR-SH)]F[Gly(2R-SCH2CO)]-X2; disulfide 2-6; lactam N-8) | 8.17 |
